Laboratory results as given in publication PMC3948889, “The Effects of LPM570065, a Novel Triple Reuptake Inhibitor, on Extracellular Serotonin, Dopamine and Norepinephrine Levels in Rats” (PLoS ONE, 2014).
Read-outs that look alike come from different tables or passages of the source.

What was measured:
[1] = system: immobility time in the forced swim test; conditions: without significantly altering locomotor activity, cited from earlier work
[2] = system: extracellular DA levels in the rat striatum; experiment: microdialysis: extracellular DA levels in the rat striatum
[3] = system: extracellular NE levels in the rat striatum; experiment: microdialysis: extracellular NE levels in the rat striatum
[4] = system: immobility time in the forced swim test; conditions: tested 0.5, 1, 2 and 4 h post-dosing
Protocol: Forced swim test was used to measure the depression-like behavior in rats after acute and chronic drug treatment. Animals were randomly divided into six groups. The animals in Groups 1, 2 and 3 were used for acute treatment, and the animals in Groups 4, 5 and 6 were used for chronic treatment (once a day for 14 days). […] The entire test was performed in 2 consecutive days: a 15-min pretest session on day 1 followed by a 5-min test session the next day. On the pretest day, rats were individually forced to swim for 15 min in a plastic cylinder (diameter 22 cm, height 46 cm) containing water (25±1°C) with a depth of 30 cm. On the test day, rats were placed in the cylinder again for a 5-min test trial at 0.5, 1, 2 and 4 h post-dosing (n = 10 rats per time point in each group). The total duration of immobilization was recorded. The criterion for immobilization was vertical floating in the water and movements necessary to keep the head above the water. After the test, animals were removed and dried with towels before returning to their home cage.

[5] = system: extracellular 5-HT levels in the rat striatum; experiment: microdialysis: extracellular 5-HT levels in the rat striatum
[6] = chronic oral suspension 0.06 mmol·kg^−1·day^−1 for 14 days
[7] = acute oral administration (oral solution, oral suspension 0.06 mmol·kg^−1)

CC(NC(C)(C)C)C(=O)c1cccc(Cl)c1 (stereo not shown) [bupropion]
immobility time in the forced swim test ([1]; 10 mg/kg): reduce the immobility time

CN(C)CC(c1ccc(O)cc1)C1(O)CCCCC1 (stereo not shown) [desvenlafaxine]
effect on extracellular DA levels ([2]; acute, oral administration or intravenous administration): did not significantly alter the extracellular DA levels
effect on extracellular DA levels [2, 6]: did not significantly alter the extracellular DA levels
effect on extracellular NE levels vs. relative vehicle ([3]; acute intravenous administration 0.04 mmol·kg^−1): marked and significant increases
effect on extracellular NE levels vs. relative vehicle [3, 7]: slight but significant increases
extracellular NE peak value (% of basal) ([3]; chronic oral suspension 0.06 mmol·kg^−1·day^−1 for 14 days, at 60 min): 139±9%
immobility time in the forced swim test vs. vehicle ([4]; acute oral suspension 0.06 mmol·kg^−1): only significantly reduced the immobility time at 1 h
immobility time in the forced swim test vs. vehicle [4, 6]: significantly reduced the immobility time
extracellular 5-HT levels increased to (% of basal) ([5]; acute intravenous solution 0.04 mmol·kg^−1, after the initial 90 min decrease, then returned to basal): 162±15%
decrease in extracellular 5-HT levels ([5]; acute intravenous solution 0.04 mmol·kg^−1, during the first 90 min post-dosing): 90%
effect on extracellular 5-HT levels vs. relative vehicle [5, 7]: slight but significant increases
increase in 5-HT AUC0–240 min value of the vehicle group [5, 6]: 187±25%

CN1Cc2c(N)cccc2C(c2ccccc2)C1 (stereo not shown) [nomifensine]
immobility time in the forced swim test ([1]; 2.5 mg/kg): reduce the immobility time
